Measurements: ChEMBL document CHEMBL6096636 (Bioorg Med Chem, 2024)
Calls of active or inactive are those of the source. No cut-off for these calls is given here.

Key:
Plasmodium falciparum [1] = assay: microbe, parasite or virus in culture; conditions: 72 h
Description: Antimalarial activity against quinine and chloroquine resistant Plasmodium falciparum clinical isolate C2A assessed as inhibition of growth incubated for 72 hrs by SYBR green I based assay

Plasmodium falciparum [2] = assay: microbe, parasite or virus in culture; conditions: Dd2, 72 h
Description: Antimalarial activity against erythrocytic stage of chloroquine-resistant Plasmodium falciparum Dd2 assessed as inhibition of growth incubated for 72 hrs by SYBR green I based assay

Plasmodium falciparum [3] = assay: Antimalarial activity against sulfadoxine-pyrimethamine and mefloquine resistant Plasmodium falciparum clinical isolate CP286 assessed as inhibition of growth incubated for 72 hrs by SYBR green I based assay; format: functional, organism-based
[4] = Cytotoxicity against HEK293T cells assessed as inhibition of cell growth incubated for 72 hrs by CCK8 assay; format: toxicity, cell-based, HEK-293T; conditions: human
[5] = AUC (0 to infinity) in female Balb/c mouse at 5 mg/kg, ip measured after 24 hrs by LC-MS/MS analysis; format: ADME, organism-based; conditions: in vivo
[6] = AUC (0 to t) in female Balb/c mouse at 5 mg/kg, ip measured after 24 hrs by LC-MS/MS analysis; format: ADME, organism-based; conditions: in vivo
[7] = Metabolic stability in mouse liver microsomes assessed as half-life measured upto 45 mins in presence of NADPH by LC-MS/MS analysis; format: ADME, Microsome
[8] = Cmax in female Balb/c mouse at 5 mg/kg, ip measured after 24 hrs by LC-MS/MS analysis; format: ADME, organism-based; conditions: in vivo
[9] = Selectivity index, ratio of IC50 for human HepG2 cells to IC50 for erythrocytic stage of Plasmodium falciparum 3D7; format: toxicity, cell-based; conditions: read-out: Ratio IC50
[10] = target: T1, NAD-dependent protein deacetylase sirtuin-2 (Homo sapiens, UniProt Q8IXJ6); assay: Inhibition of recombinant human SIRT2 using Ac-peptide as substrate preincubated for 15 mins followed by substrate addition for 240 mins and measured after 120 mins of trypsin addition
T1 sequence (Q8IXJ6 whole entry): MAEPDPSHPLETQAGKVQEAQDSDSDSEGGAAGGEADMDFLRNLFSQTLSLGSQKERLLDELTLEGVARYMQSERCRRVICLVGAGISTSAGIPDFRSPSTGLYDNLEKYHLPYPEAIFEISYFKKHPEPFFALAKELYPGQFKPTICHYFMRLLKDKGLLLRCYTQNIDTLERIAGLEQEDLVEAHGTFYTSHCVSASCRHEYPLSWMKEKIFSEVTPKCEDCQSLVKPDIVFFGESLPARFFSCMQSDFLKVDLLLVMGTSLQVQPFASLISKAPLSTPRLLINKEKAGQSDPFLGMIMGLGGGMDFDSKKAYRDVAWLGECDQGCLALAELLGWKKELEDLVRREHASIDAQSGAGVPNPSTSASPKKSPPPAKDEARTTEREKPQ

Plasmodium falciparum [11] = assay: Inhibition of asynchronous ring stage Plasmodium falciparum 3D7 HDAC assessed as increase in histone H3 acetylation level at 20 times of IC50 concentration incubated for 2 hrs by Western blot analysis
[12] = Apparent clearance during terminal phase in female Balb/c mouse at 5 mg/kg, ip measured after 24 hrs by LC-MS/MS analysis; format: ADME, organism-based; conditions: in vivo, read-out: CLz/F (converted)
[13] = Toxicity in female mouse model infected with erythrocytic stage of Plasmodium yoelli assessed as animal death at 30 mg/kg, ip pre-infected with parasite followed by twice daily compound administration from day 3 to 6; format: organism-based; conditions: in vivo, 96 h, time 4 day
[14] = Apparent volume of distribution during terminal phase in female Balb/c mouse at 5 mg/kg, ip measured after 24 hrs by LC-MS/MS analysis; format: ADME, organism-based; conditions: in vivo, read-out: Vz/F
[15] = Cytotoxicity against human HepG2 cells assessed as inhibition of cell growth incubated for 72 hrs by CCK8 assay; format: toxicity, cell-based
Plasmodium falciparum [16] = assay: microbe, parasite or virus in culture; conditions: 72 h; remark: listed apart in the source
Description: Antimalarial activity against chloroquine resistant Plasmodium falciparum clinical isolate GB4 assessed as inhibition of growth incubated for 72 hrs by SYBR green I based assay

[17] = Tmax in female Balb/c mouse at 5 mg/kg, ip measured after 24 hrs by LC-MS/MS analysis; format: ADME, organism-based; conditions: in vivo
[18] = Selectivity index, ratio of IC50 for HEK293T cells to IC50 for erythrocytic stage of Plasmodium falciparum 3D7; format: toxicity, cell-based; conditions: human, read-out: Ratio IC50
Histone deacetylase 2 = Histone deacetylase 2 (Homo sapiens, UniProt Q92769); assay: Inhibition of recombinant human HDAC2 using Ac-peptide as substrate preincubated for 15 mins followed by substrate addition and measured after 60 mins
[19] = Metabolic stability in mouse liver microsomes assessed as clearance measured upto 45 mins in presence of NADPH by LC-MS/MS analysis; format: ADME, Microsome; conditions: read-out: CLH
Histone deacetylase 1 = Histone deacetylase 1 (Homo sapiens, UniProt Q13547); assay: Inhibition of recombinant human HDAC1 using Ac-peptide as substrate preincubated for 15 mins followed by substrate addition and measured after 60 mins
Histone deacetylase 8 = target: T2, Histone deacetylase 8 (Homo sapiens, UniProt Q9BY41); assay: Inhibition of recombinant human HDAC8 using Ac-peptide as substrate preincubated for 15 mins followed by substrate addition for 240 mins and measured after 120 mins of trypsin addition
T2 sequence (Q9BY41 whole entry): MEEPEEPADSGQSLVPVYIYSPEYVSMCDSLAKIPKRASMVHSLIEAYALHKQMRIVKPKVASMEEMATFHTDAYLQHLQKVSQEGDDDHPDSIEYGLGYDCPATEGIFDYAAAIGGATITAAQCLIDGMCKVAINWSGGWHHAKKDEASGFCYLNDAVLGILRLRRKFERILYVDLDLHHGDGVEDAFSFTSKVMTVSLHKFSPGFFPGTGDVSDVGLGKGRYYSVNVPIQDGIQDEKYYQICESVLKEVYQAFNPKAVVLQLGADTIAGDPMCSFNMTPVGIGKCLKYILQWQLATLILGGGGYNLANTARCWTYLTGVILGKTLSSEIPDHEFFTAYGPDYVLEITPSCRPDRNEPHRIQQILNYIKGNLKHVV

Plasmodium yoelii = assay: Antimalarial activity against erythrocytic stage of Plasmodium yoelli infected in female mouse model assessed as reduction in parasitemia at 30 mg/kg, ip pre-infected with parasite followed by twice daily compound administration from day 3 to 6 by microscopic analysis; format: functional, organism-based; conditions: time 4.0 day
[20] = Half-life in female Balb/c mouse at 5 mg/kg, ip measured after 24 hrs by LC-MS/MS analysis; format: ADME, organism-based; conditions: in vivo
Plasmodium falciparum [21] = assay: microbe, parasite or virus in culture; conditions: 3D7, 72 h
Description: Antimalarial activity against erythrocytic stage of Plasmodium falciparum 3D7 assessed as inhibition of growth incubated for 72 hrs by SYBR green I based assay

Histone deacetylase 3 = Histone deacetylase 3 (Homo sapiens, UniProt O15379); assay: Inhibition of recombinant human HDAC3 using Ac-peptide as substrate preincubated for 15 mins followed by substrate addition and measured after 60 mins
Chain of Histone deacetylase 3 (O15379 whole entry): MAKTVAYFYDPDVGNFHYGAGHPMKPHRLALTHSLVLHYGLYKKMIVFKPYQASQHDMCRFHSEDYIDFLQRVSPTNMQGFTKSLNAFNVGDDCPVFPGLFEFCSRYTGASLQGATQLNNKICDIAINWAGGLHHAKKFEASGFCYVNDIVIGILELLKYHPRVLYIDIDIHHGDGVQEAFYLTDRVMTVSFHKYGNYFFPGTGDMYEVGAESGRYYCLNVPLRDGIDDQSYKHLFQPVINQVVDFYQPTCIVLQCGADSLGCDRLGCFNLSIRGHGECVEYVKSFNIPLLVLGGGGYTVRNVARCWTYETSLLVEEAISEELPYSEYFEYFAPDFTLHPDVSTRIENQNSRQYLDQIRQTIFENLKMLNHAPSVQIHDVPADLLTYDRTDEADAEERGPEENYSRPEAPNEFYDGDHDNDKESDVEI

Chain of Histone deacetylase 2 (Q92769 whole entry): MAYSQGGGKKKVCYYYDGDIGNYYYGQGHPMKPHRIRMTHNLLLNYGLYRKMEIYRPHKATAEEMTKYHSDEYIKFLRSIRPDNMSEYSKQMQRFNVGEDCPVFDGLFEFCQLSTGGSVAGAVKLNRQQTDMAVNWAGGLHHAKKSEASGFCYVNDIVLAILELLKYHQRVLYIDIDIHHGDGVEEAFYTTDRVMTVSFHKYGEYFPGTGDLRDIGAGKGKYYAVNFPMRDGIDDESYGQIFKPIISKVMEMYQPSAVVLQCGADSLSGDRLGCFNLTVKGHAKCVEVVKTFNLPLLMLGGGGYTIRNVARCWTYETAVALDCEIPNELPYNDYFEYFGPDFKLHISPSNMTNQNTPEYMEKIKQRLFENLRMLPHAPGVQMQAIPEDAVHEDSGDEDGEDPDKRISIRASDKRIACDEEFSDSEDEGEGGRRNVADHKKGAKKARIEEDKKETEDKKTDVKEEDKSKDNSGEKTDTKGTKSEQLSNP
Chain of Histone deacetylase 1 (Q13547 whole entry): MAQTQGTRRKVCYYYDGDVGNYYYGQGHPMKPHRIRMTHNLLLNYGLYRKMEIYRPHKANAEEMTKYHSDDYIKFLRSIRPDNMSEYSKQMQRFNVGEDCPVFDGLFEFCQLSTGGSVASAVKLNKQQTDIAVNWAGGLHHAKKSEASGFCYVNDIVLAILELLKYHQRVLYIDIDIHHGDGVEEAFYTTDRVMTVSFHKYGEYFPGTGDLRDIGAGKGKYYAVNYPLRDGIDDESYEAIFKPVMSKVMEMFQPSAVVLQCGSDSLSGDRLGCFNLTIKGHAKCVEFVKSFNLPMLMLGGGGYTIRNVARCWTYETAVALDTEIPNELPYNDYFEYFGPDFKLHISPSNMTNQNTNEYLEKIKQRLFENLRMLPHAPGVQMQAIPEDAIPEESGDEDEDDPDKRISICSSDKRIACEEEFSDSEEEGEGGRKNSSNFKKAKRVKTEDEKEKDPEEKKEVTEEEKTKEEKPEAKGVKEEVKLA

With `Cc1ccc2c(CN[C@H]3CC[C@@H](Nc4ncc(C(=O)NO)cn4)CC3)cn(C)c2c1.Cl` the IC50 (Plasmodium falciparum [1]) was 24.7 nM, the IC50 (Plasmodium falciparum [2]) was 19.4 nM and the IC50 (Plasmodium falciparum [3]) was 28.4 nM. For the same molecule, the IC50 at 72 h [4] was 7.75 µM, the AUC(0-inf) [5] was 853 ng·h/mL and the AUC(0-t) at 24 h [6] was 833 ng·h/mL. For the same molecule, the half-life [7] was 39 min, the Cmax [8] was 803 ng/mL and the selectivity ratio [9] was 469. For the same molecule, the IC50 [10] was > 10 µM, the inhibition (Plasmodium falciparum [11]) was “Active” and the CL/F [12] was 97.7 mL/min/kg. For the same molecule, the Activity [13] was “Toxic”, the Vd/F [14] was 16.1 L/kg and the IC50 at 72 h [15] was 5.29 µM. For the same molecule, the IC50 (Plasmodium falciparum [16]) was 29.5 nM, the Tmax [17] was 15 min and the selectivity ratio [18] was 687. It also gave an IC50 (Histone deacetylase 2) of 11 nM, a CLint scaled [19] of 140 mL/min/kg and an IC50 (Histone deacetylase 1) of 4.9 nM. The IC50 (Histone deacetylase 8) was 43 nM, the Activity (Plasmodium yoelii) was “Active; Only Slight Recurrence Of Parasitemia Was Observed Upon Cessation Of Treatment” and the half-life [20] was 114 min. The IC50 (Plasmodium falciparum [21]) was 11.3 nM and the IC50 (Histone deacetylase 3) was 23 nM.
